Measured values taken from US10842779B2, “Heterocyclic compounds and their use in preventing or treating bacterial infections” (priority 2015, dated 2020).
Read-outs that look alike come from different tables or passages of the source.

What was measured:
[1] = target: T1, OXA-11 (Pseudomonas aeruginosa, UniProt Q06778); experiment: β-Lactamase inhibitory activity, nitrocefin hydrolysis; type: biochemical
T1 construct: made in house; host or cells: E. coli

[2] = target: T2, OXA-48 (Klebsiella pneumoniae, UniProt Q6XEC0); experiment: as above; type: biochemical; conditions: class (D); 30 min pre-incubation
T2 construct: made in house; host or cells: E. coli

[3] = target: T3, CTX-M-15 (Escherichia coli, UniProt Q9EXV5); experiment: as above; type: biochemical; conditions: class (A); 30 min pre-incubation
T3 construct: made in house; host or cells: E. coli

[4] = target: T4, OXA-1 (Escherichia coli, UniProt P13661); experiment: as above; type: biochemical; conditions: class (D); 30 min pre-incubation
T4 construct: made in house; host or cells: E. coli

[5] = target: T5, OXA-15 (Pseudomonas aeruginosa, UniProt Q51574); experiment: as above; type: biochemical
T5 construct: made in house; host or cells: E. coli

[6] = target: T6, SHV-1 (Klebsiella pneumoniae, UniProt P0AD64); experiment: as above; type: biochemical
T6 construct: made in house; host or cells: E. coli

[7] = test system: E. coli; experiment: MIC of compounds alone, broth microdilution; type: cell-based; conditions: Escherichia coli, ECO 190317, beta-lactamases TEM-1, SHV-12, CTX-M-15 OXA-1, read-out: MIC
Description: (§1) Method 2: MIC of Compounds and Synergy with Ceftazidime Against Bacterial Isolates (Table 2 and 3)
(§2) Compounds of the present invention were assessed against genotyped bacterial strains alone or in combination with the β-lactam ceftazidime. In the assays, MICs of said compounds, or of ceftazidime at fixed concentrations of said compounds were determined by the broth microdilution method according to the Clinical Laboratory Standards Institute (CLSI—M7-A7). Briefly, compounds alone according to the invention were prepared in DMSO and spotted (2 μL each) on sterile polystyrene plates (Corning, 3788). Compounds and ceftazidime dilutions were prepared in DMSO and spotted (1 μL each) on sterile polystyrene plates (Corning, 3788). Log phase bacterial suspensions were adjusted to a final density of 5×10^5 cfu/mL in cation-adjusted Mueller-Hinton broth (Beckton-Dickinson) and added to each well (98 μL). Microplates were incubated for 16-20 h at 35° C. in ambient air. The MIC of the compounds was defined as the lowest concentration of said compounds that prevented bacterial growth as read by visual inspection. The MIC of ceftazidime at each compound concentration was defined as the lowest concentration of ceftazidime that prevented bacterial growth as read by visual inspection.

[8] = target: T7, KPC-2 (Klebsiella pneumoniae, UniProt Q9F663); experiment: β-Lactamase inhibitory activity, nitrocefin hydrolysis; type: biochemical; conditions: class (A); 30 min pre-incubation
T7 construct: made in house; host or cells: E. coli

[9] = target: AmpC (PAE) (Pseudomonas aeruginosa, UniProt P24735); experiment: biochemical
Description: (§3) Method 1: β-Lactamase Inhibitory Activity, Determination of IC50 (Table 1)
(§4) Enzyme activity was monitored by spectrophotometric measurement of nitrocefin (NCF-TOKU-E, N005) hydrolysis at 485 nm, at room temperature and in assay buffer A: 100 mM Phosphate pH7, 2% glycerol and 0.1 mg/mL Bovine serum albumin (Sigma, B4287). Enzymes were cloned in E. coli expression vector, expressed and purified in house using classical procedures. To a transparent polystyrene plate (Corning, 3628) were added in each well 5 μL DMSO or inhibitor dilutions in DMSO and 80 μL enzyme in buffer A. Plates were immediately read at 485 nm in a microplate spectrophotometer (BioTek, PowerWave HT) to enable background subtraction. After 30 min of pre-incubation at room temperature, 15 μL of NCF (200 μM final) were finally added in each well. Final enzyme concentrations were 0.1 nM (TEM-1), 0.075 nM (SHV-1), 0.4 nM (CTX-M-15), 1 nM (KPC-2), 0.2 nM (P99 AmpC), 0.2 nM (CMY-37), 0.4 nM (AmpC P. aeruginosa), 0.2 nM (OXA-1), 1.2 nM (OXA-11), 0.4 nM (OXA-15) and 0.3 nM (OXA-48). After 20 min incubation at room temperature, plates were once again read at 485 nm. Enzyme activity was obtained by subtracting the final signal by the background, and was converted to enzyme inhibition using non inhibited wells. IC50 curves were fitted to a classical Langmuir equilibrium model with Hill slope using XLFIT (IDBS).

[10] = target: AmpC (P99) (Enterobacter cloacae, UniProt P05364); experiment: biochemical
Description: as §3, §4

[11] = target: T8, TEM-1 (Escherichia coli, UniProt P62593); experiment: β-Lactamase inhibitory activity, nitrocefin hydrolysis; type: biochemical; conditions: class (A); 30 min pre-incubation
T8 construct: made in house; host or cells: E. coli

[12] = target: CMY-37 (Citrobacter freundii); experiment: as above; type: biochemical
[13] = test system: K. pneumoniae; experiment: MIC of compounds alone, broth microdilution; type: cell-based; conditions: Klebsiella pneumoniae, alone; KPN 6299; beta-lactamases TEM-1, SHV-11 OXA-163; read-out: MIC
Description: as §1, §2

[14] = test system: E. cloacae; experiment: MIC of compounds alone, broth microdilution; type: cell-based; conditions: Enterobacter cloacae, ECL P99, beta-lactamases AmpC, read-out: MIC
Description: as §1, §2

[15] = test system: K. pneumoniae; experiment: Synergy with ceftazidime: MIC of ceftazidime at fixed concentration of compound; type: cell-based; conditions: Klebsiella pneumoniae, read-out: MIC of CAZ + compound (4 μg/mL), KPN 6299; beta-lactamases TEM-1, SHV-11 OXA-163
Description: as §1, §2

[16] = test system: E. cloacae; experiment: as above; type: cell-based; conditions: Enterobacter cloacae, ECL P99; beta-lactamases AmpC; read-out: MIC of CAZ + compound (4 μg/mL)
Description: as §1, §2

Row | Structure (SMILES) | IC50 [1] [µM] | IC50 [2] [µM] | IC50 [3] [µM] | IC50 [4] [µM] | IC50 [5] [µM] | IC50 [6] [µM] | MIC [7] [µg/mL] | IC50 [8] [µM] | IC50 [9] [µM] | IC50 [10] [µM] | IC50 [11] [µM] | IC50 [12] [µM] | MIC [13] [µg/mL] | MIC [14] [µg/mL] | IC50 ([12]; class (C), 30 min pre-incubation, read-out: IC50 β-lactamase CMY-37) [µM] | MIC [15] [µg/mL] | MIC [16] [µg/mL]
1 | O=C(O)C(F)(F)F.O=C1N2C[C@H](c3scnc3[C@H]2c2nnc[nH]2)N1OS(=O)(=O)[O-].[Na+] (relative stereo) [Example 3, Sodium and 2,2,2-trifluoroacetate [trans-7-(4H-1,2,4-triazol-4-ium-3-yl)-9-oxo-3-thia-5,8,10-triaza-tricyclo[6.2.1.0^2,6]undeca-2(6),4-dien-10-yl]sulfate] | 0.19 | 0.0068 | 0.028 | 1 | 1.1 | 0.14 | 16 | 0.46 | 0.57 | 0.013 | 0.046 | 0.03 | – | – | – | – | –
2 | O=C1N2C[C@H](c3scnc3[C@H]2c2ncno2)N1OS(=O)(=O)[O-].[Na+] (relative stereo) [Example 4, Sodium [trans-7-(1,2,4-oxadiazol-5-yl)-9-oxo-3-thia-5,8,10-triaza-tricyclo[6.2.1.0^2,6]undeca-2(6),4-dien-10-yl]sulfate] | 0.0065 | 0.00034 | 0.00064 | 0.17 | 0.019 | 0.0014 | 16 | 0.0032 | 0.064 | 0.0011 | 0.0011 | – | > 32 | 32 | 0.0034 | 2 | 2
